What was measured:
[1] = molecular target: T1, bovine carbonic anhydrase II (Bos taurus, UniProt P00921); test: Enzymatic assay of bCA II inhibition, absorbance at 415 nm; format: biochemical; details: for inhibition at 1 µM: 1 μM concentration of the inhibitor, triplicate with three technical replicas; for Ki: CA II, from Lineweaver–Burk, Dixon and Cornish Bowden plots, read-out: Inhibition constant Ki;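 on all read-outs here: enzyme is carbonic anhydrase II isolated from bovine erythrocytes, with its activity followed photometrically at 415 nm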
T1 construct: carbonic anhydrase II (bCAII, ≥3000 W-A units/mg from bovine erythrocytes) from Sigma; purchased Sigma (Taufkirchen, Germany); host or cells: isolated from bovine erythrocytes
T1 sequence (P00921 whole entry): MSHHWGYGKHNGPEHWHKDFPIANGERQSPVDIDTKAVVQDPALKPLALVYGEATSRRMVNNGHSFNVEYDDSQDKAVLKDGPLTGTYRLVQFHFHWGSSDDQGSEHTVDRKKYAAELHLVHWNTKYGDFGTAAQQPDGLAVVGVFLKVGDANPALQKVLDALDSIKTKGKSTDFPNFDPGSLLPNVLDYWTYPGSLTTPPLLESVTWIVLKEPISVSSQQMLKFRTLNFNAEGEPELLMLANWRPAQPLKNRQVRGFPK
Procedure: The enzymatic assays have been performed with carbonic anhydrase II (bCAII, ≥3000 W-A units/mg from bovine erythrocytes) from Sigma (Taufkirchen, Germany) using a BMG Labtech Spectrostar Omega apparatus (BMG Labtech, Ortenberg, Germany) measuring λ = 415 nm. Conditions have been described previously [72]. Ki and Ki′ values were determined from Lineweaver–Burk, Dixon and Cornish Bowden plots, respectively.

SMILES: NS(=O)(=O)OCCCNS(=O)(=O)c1ccccc1 [2b, 3-(Phenylsulfonamido]propyl Sulfamate]
- inhibition at 1 µM ([1]; bCA II): 39.9 ± 0.4%
- melting point: 64 to 66 °C

SMILES: NS(=O)(=O)OCCCCCCNS(=O)(=O)c1ccccc1 [5b, 6-(Phenylsulfonamido]hexyl Sulfamate]
- inhibition at 1 µM ([1]; bCA II): 56 ± 0.5%
- melting point: 64 to 66 °C

SMILES: NS(=O)(=O)OCCCCCCCNS(=O)(=O)c1ccccc1 [6b, 7-(Phenylsulfonamido]heptyl Sulfamate]
- inhibition at 1 µM ([1]; bCA II): 56 ± 0.8%
- melting point: 59 to 61 °C

SMILES: NS(=O)(=O)OCCCCCCCCNS(=O)(=O)c1ccccc1 [7b, 8-(Phenylsulfonamido]octyl Sulfamate]
- inhibition at 1 µM ([1]; bCA II): 60.2 ± 0.7%
- melting point: 77 to 78 °C

SMILES: NS(=O)(=O)OCCCCCCCCCNS(=O)(=O)c1ccccc1 [8b, 9-(Phenylsulfonamido]nonyl Sulfamate]
- inhibition at 1 µM ([1]; bCA II): 55.4 ± 0.7%
- melting point: 82 to 84 °C

SMILES: NS(=O)(=O)OCCCCCCCCCCNS(=O)(=O)c1ccccc1 [9b, 10-(Phenylsulfonamido]decyl Sulfamate]
- inhibition at 1 µM ([1]; bCA II): 10.7 ± 0.4%
- melting point: 89 to 91 °C

SMILES: NS(=O)(=O)OCCCCCCCCCCCNS(=O)(=O)c1ccccc1 [10b, 11-(Phenylsulfonamido]undecyl Sulfamate]
- inhibition at 1 µM ([1]; bCA II): 7.2 ± 0.9%
- melting point: 95 to 97 °C

SMILES: NS(=O)(=O)OCCCCCCCCCCCCNS(=O)(=O)c1ccccc1 [11b, 12-(Phenylsulfonamido]dodecyl Sulfamate]
- inhibition at 1 µM ([1]; bCA II): 5.9 ± 0.9%
- melting point: 102 to 103 °C

SMILES: Cc1ccc(S(=O)(=O)NCCOS(N)(=O)=O)cc1 [12b, 2-[(4-Methylphenyl)sulfonamido]ethyl Sulfamate]
- Ki [1]: 760 ± 30 nM
- inhibition at 1 µM ([1]; bCA II): 75.8 ± 0.6%
- melting point: 79 to 81 °C

SMILES: Cc1ccc(S(=O)(=O)NCCCOS(N)(=O)=O)cc1 [13b, 3-[(4-Methylphenyl)sulfonamido]propyl Sulfamate]
- inhibition at 1 µM ([1]; bCA II): 63.8 ± 0.8%
- melting point: 86 to 87 °C

SMILES: Cc1ccc(S(=O)(=O)NCCCCOS(N)(=O)=O)cc1 [14b, 4-[(4-Methylphenyl)sulfonamido]butyl Sulfamate]
- inhibition at 1 µM ([1]; bCA II): 42.9 ± 0.1%
- melting point: 66 to 68 °C

SMILES: Cc1ccc(S(=O)(=O)NCCCCCOS(N)(=O)=O)cc1 [15b, 5-[(4-Methylphenyl)sulfonamido]pentyl Sulfamate]
- inhibition at 1 µM ([1]; bCA II): 58.9 ± 0.2%
- melting point: 94 to 95 °C

SMILES: Cc1ccc(S(=O)(=O)NCCCCCCO)cc1 [16a, N-(6-Hydroxyhexyl)-4-methylbenzene Sulfonamide]
- melting point: 49 to 51 °C

SMILES: Cc1ccc(S(=O)(=O)NCCCCCCOS(N)(=O)=O)cc1 [16b, 6-[(4-Methylphenyl)sulfonamido]hexyl Sulfamate]
- inhibition at 1 µM ([1]; bCA II): 40.3 ± 0.7%
- melting point: 49 to 50 °C

SMILES: Cc1ccc(S(=O)(=O)NCCCCCCCOS(N)(=O)=O)cc1 [17b, 7-[(4-Methylphenyl)sulfonamido]heptyl Sulfamate]
- inhibition at 1 µM ([1]; bCA II): 42.8 ± 0.5%
- melting point: 85 to 86 °C

SMILES: Cc1ccc(S(=O)(=O)NCCCCCCCCO)cc1 [18a, N-(8-Hydroxyoctyl)-4-methylbenzene Sulfonamide]
- melting point: 87 to 88 °C

SMILES: Cc1ccc(S(=O)(=O)NCCCCCCCCOS(N)(=O)=O)cc1 [18b, 8-[(4-Methylphenyl)sulfonamido]octyl Sulfamate]
- inhibition at 1 µM ([1]; bCA II): 54.7 ± 0.6%
- melting point: 98 to 100 °C

SMILES: Cc1cccc(S(=O)(=O)NCCOS(N)(=O)=O)c1 [19b, 2-[(3-Methylphenyl)sulfonamido]ethyl Sulfamate]
- inhibition at 1 µM ([1]; bCA II): 59.5 ± 0.1%
- melting point: 36 to 38 °C

SMILES: Cc1cccc(S(=O)(=O)NCCCOS(N)(=O)=O)c1 [20b, 3-[(3-Methylphenyl)sulfonamido]propyl Sulfamate]
- inhibition at 1 µM ([1]; bCA II): 48.4 ± 0.1%
- melting point: 73 to 74 °C

SMILES: Cc1cccc(S(=O)(=O)NCCCCOS(N)(=O)=O)c1 [21b, 4-[(3-Methylphenyl)sulfonamido]butyl Sulfamate]
- inhibition at 1 µM ([1]; bCA II): 32.2 ± 0.6%
- melting point: 62 to 64 °C

SMILES: Cc1cccc(S(=O)(=O)NCCCCCOS(N)(=O)=O)c1 [22b, 5-[(3-Methylphenyl)sulfonamido]pentyl Sulfamate]
- inhibition at 1 µM ([1]; bCA II): 49.1 ± 0.2%
- melting point: 67 to 68 °C

SMILES: Cc1cccc(S(=O)(=O)NCCCCCCOS(N)(=O)=O)c1 [23b, 6-[(3-Methylphenyl)sulfonamido]hexyl Sulfamate]
- inhibition at 1 µM ([1]; bCA II): 51.8 ± 0.7%
- melting point: 74 to 75 °C

SMILES: Cc1cccc(S(=O)(=O)NCCCCCCCOS(N)(=O)=O)c1 [24b, 7-[(3-Methylphenyl)sulfonamido]heptyl Sulfamate]
- inhibition at 1 µM ([1]; bCA II): 27.1 ± 0.9%
- melting point: 55 to 57 °C

SMILES: Cc1cccc(S(=O)(=O)NCCCCCCCCOS(N)(=O)=O)c1 [25b, 8-[(3-Methylphenyl)sulfonamido]octyl Sulfamate]
- inhibition at 1 µM ([1]; bCA II): 38.8 ± 0.1%
- melting point: 54 to 56 °C

SMILES: Cc1ccccc1S(=O)(=O)NCCO [26a, N-(2-Hydroxyethyl)-2-methylbenzene Sulfonamide]
- melting point: 73 to 74 °C

SMILES: Cc1ccccc1S(=O)(=O)NCCOS(N)(=O)=O [26b, 2-[(2-Methylphenyl)sulfonamido]ethyl Sulfamate]
- Ki [1]: 1100 ± 30 nM
- inhibition at 1 µM ([1]; bCA II): 69.1 ± 0.7%
- melting point: 70 to 72 °C

SMILES: Cc1ccccc1S(=O)(=O)NCCCOS(N)(=O)=O [27b, 3-[(2-Methylphenyl)sulfonamido]propyl Sulfamate]
- inhibition at 1 µM ([1]; bCA II): 50 ± 0.8%
- melting point: 68 to 70 °C

SMILES: CC(C)c1ccc(S(=O)(=O)NCCOS(N)(=O)=O)cc1 [33b, 2-[(4-Isopropylphenyl)sulfonamido]ethyl Sulfamate]
- Ki [1]: 840 ± 20 nM
- inhibition at 1 µM ([1]; bCA II): 63.2 ± 0.4%
- melting point: 81 to 82 °C

SMILES: CC(C)c1ccc(S(=O)(=O)NCCCOS(N)(=O)=O)cc1 [34b, 3-[(4-Isopropylphenyl)sulfonamido]propyl Sulfamate]
- inhibition at 1 µM ([1]; bCA II): 60.3 ± 0.9%
- melting point: 83 to 84 °C

SMILES: CC(C)c1ccc(S(=O)(=O)NCCCCOS(N)(=O)=O)cc1 [35b, 4-[(4-Isopropylphenyl)sulfonamido]butyl Sulfamate]
- inhibition at 1 µM ([1]; bCA II): 43.7 ± 0.4%
- melting point: 95 to 97 °C

SMILES: CC(C)c1ccc(S(=O)(=O)NCCCCCOS(N)(=O)=O)cc1 [36b, 5-[(4-Isopropylphenyl)sulfonamido]pentyl Sulfamate]
- inhibition at 1 µM ([1]; bCA II): 40.8 ± 0.6%
- melting point: 95 to 97 °C

SMILES: CC(C)c1ccc(S(=O)(=O)NCCCCCCOS(N)(=O)=O)cc1 [37b, 6-[(4-Isopropylphenyl)sulfonamido]hexyl Sulfamate]
- inhibition at 1 µM ([1]; bCA II): 45.9 ± 0.7%
- melting point: 102 to 103 °C

SMILES: CC(C)c1ccc(S(=O)(=O)NCCCCCCCOS(N)(=O)=O)cc1 [38b, 7-[(4-Isopropylphenyl)sulfonamido]heptyl Sulfamate]
- inhibition at 1 µM ([1]; bCA II): 30.3 ± 0.1%
- melting point: 70 to 72 °C

SMILES: CC(C)c1ccc(S(=O)(=O)NCCCCCCCCOS(N)(=O)=O)cc1 [39b, 8-[(4-Isopropylphenyl)sulfonamido]octyl Sulfamate]
- inhibition at 1 µM ([1]; bCA II): 28.1 ± 0.5%
- melting point: 69 to 70 °C

SMILES: CC(C)(C)c1ccc(S(=O)(=O)NCCO)cc1 [49a, 4-(tert-Butyl)-N-(2-hydroxyethyl)benzene Sulfonamide]
- melting point: 75 to 77 °C

SMILES: CC(C)(C)c1ccc(S(=O)(=O)NCCOS(N)(=O)=O)cc1 [49b, 2-[(4-(tert-Butyl)phenyl)sulfonamido]ethyl Sulfamate]
- Ki [1]: 670 ± 50 nM
- mode of inhibition ([1]; bCA II): competitive inhibitor
- inhibition at 1 µM ([1]; bCA II): 75.6 ± 0.4%
- melting point: 92 to 93 °C

SMILES: CC(C)(C)c1ccc(S(=O)(=O)NCCCOS(N)(=O)=O)cc1 [50b, 3-[(4-(tert-Butyl)phenyl)sulfonamido]propyl Sulfamate]
- inhibition at 1 µM ([1]; bCA II): 63.4 ± 0.6%
- melting point: 85 to 86 °C

SMILES: CC(C)(C)c1ccc(S(=O)(=O)NCCCCO)cc1 [51a, 4-(tert-Butyl)-N-(4-hydroxybutyl)benzene Sulfonamide]
- melting point: 58 to 60 °C

SMILES: CC(C)(C)c1ccc(S(=O)(=O)NCCCCOS(N)(=O)=O)cc1 [51b, 4-[(4-(tert-Butyl)phenyl)sulfonamido]butyl Sulfamate]
- inhibition at 1 µM ([1]; bCA II): 44.9 ± 0.4%
- melting point: 100 to 102 °C

SMILES: CC(C)(C)c1ccc(S(=O)(=O)NCCCCCO)cc1 [52a, 4-(tert-Butyl)-N-(5-hydroxypentyl)benzene Sulfonamide]
- melting point: 53 to 54 °C

SMILES: CC(C)(C)c1ccc(S(=O)(=O)NCCCCCCO)cc1 [53a, 4-(tert-Butyl)-N-(6-hydroxyhexyl)benzene Sulfonamide]
- melting point: 53 to 54 °C

SMILES: CC(C)(C)c1ccc(S(=O)(=O)NCCCCCCCO)cc1 [54a, 4-(tert-Butyl)-N-(7-hydroxyheptyl)benzene Sulfonamide]
- melting point: 51 to 52 °C

SMILES: CC(C)(C)c1ccc(S(=O)(=O)NCCCCCCCCO)cc1 [55a, 4-(tert-Butyl)-N-(8-hydroxyoctyl)benzene Sulfonamide]
- melting point: 69 to 71 °C

SMILES: CC(C)(C)c1ccc(S(=O)(=O)NCCCCCCCCCO)cc1 [56a, 4-(tert-Butyl)-N-(9-hydroxynonyl)benzene Sulfonamide]
- melting point: 69 to 70 °C

SMILES: CC(C)(C)c1ccc(S(=O)(=O)NCCCCCCCCCCO)cc1 [57a, 4-(tert-Butyl)-N-(10-hydroxydecyl)benzene Sulfonamide]
- melting point: 75 to 76 °C

SMILES: O=S(=O)(NCCCCCCO)c1ccc(C2CCCCC2)cc1 [72a, 4-Cyclohexyl-N-(6-hydroxyhexyl)benzene Sulfonamide]
- melting point: 87 to 88 °C

SMILES: O=S(=O)(NCCCCCCCCO)c1ccc(C23CC4CC(CC(C4)C2)C3)cc1 [77a, 4-(Adamantan-1-yl)-N-(8-hydroxyoctyl)benzene Sulfonamide]
- melting point: 101 to 102 °C

SMILES: O=S(=O)(NCCCCCCCCCO)c1ccc(C23CC4CC(CC(C4)C2)C3)cc1 [78a, 4-(Adamantan-1-yl)-N-(9-hydroxynonyl)benzene Sulfonamide]
- melting point: 84 to 85 °C

SMILES: O=S(=O)(NCCCCCCCCCCO)c1ccc(C23CC4CC(CC(C4)C2)C3)cc1 [79a, 4-(Adamantan-1-yl)-N-(10-hydroxydecyl)benzene Sulfonamide]
- melting point: 76 to 79 °C

Source: paper PMC11243685, “Synthesis and Enzymatic Evaluation of a Small Library of Substituted Phenylsulfonamido-Alkyl Sulfamates towards Carbonic Anhydrase II” (Molecules, 2024)
